From patent publication US20240391862A1, “(1,4,5-TRISUBSTITUTED-1H-PYRAZOL-3-YL)OXY-2-ALKOXY ALKYL ACIDS AND THEIR DERIVATIVES, THEIR SALTS AND THEIR USE AS HERBICIDAL AGENTS” (Bayer AKtiengesellschaft, priority 2021, published 2024)

What was measured:
LOLRI = assay: Post-emergence herbicidal effect, greenhouse pot test; type: in vivo, Lolium rigidum; conditions: 320 g/ha
Method in brief: (§1)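 Greenhouse pot plants in sandy loam receive a one-leaf-stage spray at 20 to 320 g/ha. Activity is assessed visually around 3 weeks afterwards on a 0–100% scale, where 100% means the plants have died.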

TRZAS = assay: Post-emergence herbicidal effect and crop plant compatibility, greenhouse pot test; type: in vivo, Triticum aestivum; conditions: 20 g/ha, one-leaf stage, rated visually after about 3 weeks vs untreated controls
Method in brief: (§2)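 Greenhouse pot test: weeds and crops sown in sandy loam, sprayed post-emergence at one-leaf stage (2–3 weeks after sowing) with WP or EC formulations plus 0.5% additive at 600 l/ha water, rates 20–320 g/ha. Visual rating about 3 weeks later versus untreated controls (100% = dead, 0% = as control).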

ABUTH = assay: Post-emergence herbicidal effect, greenhouse pot test; type: in vivo, Abutilon theophrasti; conditions: visual rating about 3 weeks after treatment
Method in brief: as §1

DIGSA = assay: as above; type: in vivo, Digitaria sanguinalis; conditions: 320 g/ha, visual rating about 3 weeks after treatment
Method in brief: as §1

POLCO = assay: as above; type: in vivo, Fallopia convolvulus
Method in brief: as §1

AVEFA = assay: as above; type: in vivo, Avena fatua; conditions: 320 g/ha, visual rating about 3 weeks after treatment
Method in brief: as §1

ZEAMX = assay: Post-emergence herbicidal effect and crop plant compatibility, greenhouse pot test; type: in vivo, Zea mays; conditions: 20 g/ha, one-leaf stage, rated visually after about 3 weeks vs untreated controls
Method in brief: as §2

VIOTR = assay: Post-emergence herbicidal effect, greenhouse pot test; type: in vivo, Viola tricolor
Method in brief: as §1

VERPE = assay: as above; type: in vivo, Veronica persica
Method in brief: as §1

KCHSC = assay: as above; type: in vivo
Method in brief: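 Greenhouse plants in sandy loam, sprayed post-emergence at the one-leaf stage (2–3 weeks after sowing) with WP or EC formulations in water plus 0.5% additive at 600 l/ha. Rates 20 to 320 g/ha. Activity rated visually after about 3 weeks against untreated controls (0% like control, 100% dead).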

ALOMY = assay: as above; type: in vivo, Alopecurus myosuroides; conditions: 320 g/ha, visual rating about 3 weeks after treatment
Method in brief: as §1

MATIN = assay: as above; type: in vivo, Tripleurospermum inodorum
Method in brief: as §1

AMARE = assay: as above; type: in vivo, Amaranthus retroflexus; conditions: 320 g/ha, visual rating about 3 weeks after treatment
Method in brief: as §1

SETVI = assay: as above; type: in vivo, Setaria viridis
Method in brief: as §1

ECHCG = assay: as above; type: in vivo, Echinochloa crus-galli
Method in brief: as §1

PHBPU = assay: as above; type: in vivo, Ipomoea purpurea
Method in brief: as §1

Question: Which “Post-emergence effect against LOLRI in %” value (LOLRI) does the source give for CCOC(Oc1nn(-c2ccccc2F)c(-c2ccc(F)nc2)c1Cl)C(=O)OCCC(=O)OC (stereo not shown) [Example I-53] here?
Answer: 90%

Question: What about the “Post-emergence effect at 20 g/ha against TRZAS in %” value (TRZAS) of the same molecule?
Answer: 0%

Question: And the “Post-emergence effect against ABUTH” value (ABUTH; 320 g/ha)?
Answer: 80%

Question: And the “Post-emergence effect against DIGSA” value (DIGSA)?
Answer: 90%

Question: What about the “Post-emergence effect against POLCO in %” value (POLCO; 80 g/ha) of the same molecule?
Answer: 80%

Question: What about the “Post-emergence effect against POLCO in %” value (POLCO; 320 g/ha) of the same molecule?
Answer: 80%

Question: And the “Post-emergence effect against AVEFA” value (AVEFA)?
Answer: 90%

Question: What about the “Post-emergence effect at 20 g/ha against ZEAMX in %” value (ZEAMX) of the same molecule?
Answer: 0%

Question: What about the “Post-emergence effect against VIOTR in %” value (VIOTR; 80 g/ha) of the same molecule?
Answer: 80%

Question: And the “Post-emergence effect against VIOTR in %” value (VIOTR; 320 g/ha)?
Answer: 80%

Question: What about the “Post-emergence effect against VERPE in %” value (VERPE; 80 g/ha) of the same molecule?
Answer: 80%

Question: And the “Post-emergence effect against VERPE in %” value (VERPE; 320 g/ha)?
Answer: 90%

Question: What about the “Post-emergence effect against KCHSC in %” value (KCHSC; 320 g/ha) of the same molecule?
Answer: 80%

Question: And the “Post-emergence effect against ALOMY” value (ALOMY)?
Answer: 100%

Question: What about the “Post-emergence effect against MATIN in %” value (MATIN; 320 g/ha) of the same molecule?
Answer: 80%

Question: What about the “Post-emergence effect against AMARE” value (AMARE) of the same molecule?
Answer: 80%

Question: And the “Post-emergence effect against SETVI in %” value (SETVI; 320 g/ha)?
Answer: 90%

Question: What about the “Post-emergence effect against ECHCG in %” value (ECHCG; 80 g/ha) of the same molecule?
Answer: 90%

Question: What about the “Post-emergence effect against ECHCG in %” value (ECHCG; 320 g/ha) of the same molecule?
Answer: 90%

Question: What about the “Post-emergence effect against PHBPU in %” value (PHBPU; 80 g/ha) of the same molecule?
Answer: 90%

Question: What about the “Post-emergence effect against PHBPU in %” value (PHBPU; 320 g/ha) of the same molecule?
Answer: 90%

Question: Which results are given for COC(=O)C(OC)Oc1nn(-c2ccccc2F)c(-c2ccc(F)nc2)c1C1CC1 (stereo not shown) [Example I-71]?
Answer: pest or weed control at 320 g/ha (LOLRI; Lolium rigidum, 504 h, read-out: Post-emergence effect against LOLRI in %): 90%; percent crop injury (phytotoxicity) to wheat, post-emergence at 20 g/ha (TRZAS; Triticum aestivum, 504 h, read-out: Post-emergence effect at 20 g/ha against TRZAS in %): 20%; pest or weed control at 80 g/ha (ABUTH; Abutilon theophrasti, 504 h, 80 g/ha, read-out: Post-emergence effect against ABUTH): 90%; pest or weed control at 320 g/ha (ABUTH; Abutilon theophrasti, 504 h, 320 g/ha, read-out: Post-emergence effect against ABUTH): 90%; pest or weed control at 320 g/ha (DIGSA; Digitaria sanguinalis, 504 h, read-out: Post-emergence effect against DIGSA): 90%; pest or weed control at 80 g/ha (POLCO; Fallopia convolvulus, 504 h, 80 g/ha, read-out: Post-emergence effect against POLCO in %): 80%; pest or weed control at 320 g/ha (POLCO; Fallopia convolvulus, 504 h, 320 g/ha, read-out: Post-emergence effect against POLCO in %): 80%; pest or weed control at 320 g/ha (AVEFA; Avena fatua, 504 h, read-out: Post-emergence effect against AVEFA): 90%; plant injury at 20 g/ha (ZEAMX; Zea mays, 504 h, read-out: Post-emergence effect at 20 g/ha against ZEAMX in %): 10%; pest or weed control at 20 g/ha (VIOTR; Viola tricolor, 504 h, 20 g/ha, read-out: Post-emergence effect against VIOTR in %): 90%; pest or weed control at 80 g/ha (VIOTR; Viola tricolor, 504 h, 80 g/ha, read-out: Post-emergence effect against VIOTR in %): 90%; pest or weed control at 320 g/ha (VIOTR; Viola tricolor, 504 h, 320 g/ha, read-out: Post-emergence effect against VIOTR in %): 90%; pest or weed control at 80 g/ha (VERPE; Veronica persica, 504 h, 80 g/ha, read-out: Post-emergence effect against VERPE in %): 90%; pest or weed control at 320 g/ha (VERPE; Veronica persica, 504 h, 320 g/ha, read-out: Post-emergence effect against VERPE in %): 90%; pest or weed control at 80 g/ha (KCHSC; 504 h, 80 g/ha, read-out: Post-emergence effect against KCHSC in %): 80%; pest or weed control at 320 g/ha (KCHSC; 504 h, 320 g/ha, read-out: Post-emergence effect against KCHSC in %): 90%; pest or weed control at 320 g/ha (ALOMY; Alopecurus myosuroides, 504 h, read-out: Post-emergence effect against ALOMY): 90%; pest or weed control at 80 g/ha (MATIN; Tripleurospermum inodorum, 504 h, 80 g/ha, read-out: Post-emergence effect against MATIN in %): 80%; pest or weed control at 320 g/ha (MATIN; Tripleurospermum inodorum, 504 h, 320 g/ha, read-out: Post-emergence effect against MATIN in %): 80%; pest or weed control at 320 g/ha (AMARE; Amaranthus retroflexus, 504 h, read-out: Post-emergence effect against AMARE): 80%; pest or weed control at 80 g/ha (SETVI; Setaria viridis, 504 h, 80 g/ha, read-out: Post-emergence effect against SETVI in %): 80%; pest or weed control at 320 g/ha (SETVI; Setaria viridis, 504 h, 320 g/ha, read-out: Post-emergence effect against SETVI in %): 90%; pest or weed control at 20 g/ha (ECHCG; Echinochloa crus-galli, 504 h, 20 g/ha, visual rating about 3 weeks after treatment, read-out: Post-emergence effect against ECHCG): 90%; pest or weed control at 80 g/ha (ECHCG; Echinochloa crus-galli, 504 h, 80 g/ha, read-out: Post-emergence effect against ECHCG in %): 90%; pest or weed control at 320 g/ha (ECHCG; Echinochloa crus-galli, 504 h, 320 g/ha, read-out: Post-emergence effect against ECHCG in %): 90%; pest or weed control at 20 g/ha (PHBPU; Ipomoea purpurea, 504 h, 20 g/ha, read-out: Post-emergence effect against PHBPU in %): 80%; pest or weed control at 80 g/ha (PHBPU; Ipomoea purpurea, 504 h, 80 g/ha, read-out: Post-emergence effect against PHBPU in %): 90%; pest or weed control at 320 g/ha (PHBPU; Ipomoea purpurea, 504 h, 320 g/ha, read-out: Post-emergence effect against PHBPU in %): 90%
